From patent US20180163180A1, “METHOD OF ENHANCING SOMATIC CELL REPROGRAMMING WITH THE ACETYLLYSINE READER BRD3R” (THE UAB RESEARCH FOUNDATION, INC ., priority 2015, published 2018)

What was measured:
BJ cells = assay: Reprogramming of human fibroblasts scored by TRA-1-60+ colonies/clusters; type: cell-based
Experimental: Briefly (FIG. 1A), 2×10^4 of BJ cells were seeded in each well of a 24-well plates. The second day, fibroblasts were transduced with OCT4 (10 MOI), SOX2 (5 MOI), KLF4 (5 MOI) along with 250 μl of individual kinase viral supernatant freshly packaged in one well of a 6-well plate. Twenty-two cDNAs were evaluated in one 24-well plate. One well is OSK control, and one well of cells is transduced with OSK plus 250 μl of GFP viral supernatant as a second control. Virus was removed next day with fresh fibroblast medium. Forty-eight hours after transduction, fibroblasts were transferred from one well into a 60-mm dish for continued reprogramming. The next day of re-seeding, fibroblast medium was replaced with E7 medium (E8 minus TGF beta) plus 100 μM of sodium butyrate. From day 18 of reprogramming on, E8 media was used. On day 25 of reprogramming, reprogramming dishes were stained for ALP or TRA-1-60 markers.
• Concentration of virus: The reprogramming viruses (OCT4, SOX2, KLF4, MYC and BET members) were concentrated before use except for library viruses. The lentiviral supernatant was centrifuged at 3,000×g for 10 mins at 4° C. to remove the cell debris. Thirty ml of the viral supernatant was then transferred into each 50-ml tube. 7 ml of 50% PEG-6000 stock solution (final concentration of 8.5%) and 4.1 ml of 4 M NaCl stock solution was added to each tube (final concentration of 0.4 M). The virus mixture was stored at 4° C. for 3-5 h.
• Cell culture and reprogramming: Human fibroblast cells (BJ ATCC CRL-2522®) were cultured in fibroblast medium: DMEM, 10% heat-inactivated FBS, 0.1 mM 2-mercaptoethanol, 100 U/ml penicillin, 100 μg/ml streptomycin, 0.1 mM MEM NEAA and 4 ng/ml human bFGF. For reprogramming, seed BJ cells into 24-well plate at 2×10^4 cells/well. Twenty-four hours after plating, pre-mix the OSK (OCT4, 10 MOI; SOX2, 5 MOI and KLF4, 5 MOI) viruses (shown in FIGS. 6B-6D, SEQ ID NO: 58-60, respectively), and add the OSK virus along with 250 μl supernatant of individual kinase virus into respective wells. Incubate overnight. Next morning, remove viruses by replacing virus-containing medium with fresh fibroblast medium. Twenty-four hours after transduction, the cells were re-seeded from one well into one matrigel-coated 60-mm dish. Next day, replace fibroblast medium with reprogramming media (E7 plus sodium butyrate at 100 μM). On 18 day, start to use E8 media. On day 25 of reprogramming, stain the reprogramming cells for alkaline phosphatase or TRA-1-60.

reprogramming cells = assay: Senescence analysis (SA-β-galactosidase staining) of reprogramming cells; type: cell-based, human; details: early stages of reprogramming (day 5)
Source text: • Senescence analysis: Prepare reprogramming cells as stated in the reprogramming section. At day 5 of reprogramming, stain cells for endogenous p-galactosidase using the Cell Senescence Kit (Cell Signaling Technology, #9860s) per manufacturer's instruction. Count the β-galactosidase^+ cells in 10 randomly selected fields in each treated groups. The total cells were counted based on DAPI staining.

With “BRD3R: BRD3 with Reprogramming activity; 556 aa isoform of human BRD3 (AAH32124, SEQ ID NO: 47), encoded by cDNA L61” the “appearance of abundant TRA-1-60+ clusters” value (BJ cells; combined with 3F (OCT4, SOX2, KLF4), controls infrequent before day 10) was 6 days, the “reprogramming activity (TRA-1-60+ colonies)” value (BJ cells; used with 3F in BJ cells, compared to OSK-GFP control) was “more TRA-1-60^+ colonies” and the “cell senescence (SA-β-galactosidase staining)” value (reprogramming cells) was “Reduced cell senescence”.
